Measurements taken from patent US12662491B2 (Redona Therapeutics, Inc., priority 2020, dated 2026).
Where two headings read alike, the source gives them in different places.

Biological target: T1, Zcchc11 enzyme (Homo sapiens, UniProt Q5TAX3)
T1 construct: made in house; host or cells: HEK293 cells (Zcchc11); E. coli Rosetta II (LIN28A)
T1 sequence (Q5TAX3 212-1420): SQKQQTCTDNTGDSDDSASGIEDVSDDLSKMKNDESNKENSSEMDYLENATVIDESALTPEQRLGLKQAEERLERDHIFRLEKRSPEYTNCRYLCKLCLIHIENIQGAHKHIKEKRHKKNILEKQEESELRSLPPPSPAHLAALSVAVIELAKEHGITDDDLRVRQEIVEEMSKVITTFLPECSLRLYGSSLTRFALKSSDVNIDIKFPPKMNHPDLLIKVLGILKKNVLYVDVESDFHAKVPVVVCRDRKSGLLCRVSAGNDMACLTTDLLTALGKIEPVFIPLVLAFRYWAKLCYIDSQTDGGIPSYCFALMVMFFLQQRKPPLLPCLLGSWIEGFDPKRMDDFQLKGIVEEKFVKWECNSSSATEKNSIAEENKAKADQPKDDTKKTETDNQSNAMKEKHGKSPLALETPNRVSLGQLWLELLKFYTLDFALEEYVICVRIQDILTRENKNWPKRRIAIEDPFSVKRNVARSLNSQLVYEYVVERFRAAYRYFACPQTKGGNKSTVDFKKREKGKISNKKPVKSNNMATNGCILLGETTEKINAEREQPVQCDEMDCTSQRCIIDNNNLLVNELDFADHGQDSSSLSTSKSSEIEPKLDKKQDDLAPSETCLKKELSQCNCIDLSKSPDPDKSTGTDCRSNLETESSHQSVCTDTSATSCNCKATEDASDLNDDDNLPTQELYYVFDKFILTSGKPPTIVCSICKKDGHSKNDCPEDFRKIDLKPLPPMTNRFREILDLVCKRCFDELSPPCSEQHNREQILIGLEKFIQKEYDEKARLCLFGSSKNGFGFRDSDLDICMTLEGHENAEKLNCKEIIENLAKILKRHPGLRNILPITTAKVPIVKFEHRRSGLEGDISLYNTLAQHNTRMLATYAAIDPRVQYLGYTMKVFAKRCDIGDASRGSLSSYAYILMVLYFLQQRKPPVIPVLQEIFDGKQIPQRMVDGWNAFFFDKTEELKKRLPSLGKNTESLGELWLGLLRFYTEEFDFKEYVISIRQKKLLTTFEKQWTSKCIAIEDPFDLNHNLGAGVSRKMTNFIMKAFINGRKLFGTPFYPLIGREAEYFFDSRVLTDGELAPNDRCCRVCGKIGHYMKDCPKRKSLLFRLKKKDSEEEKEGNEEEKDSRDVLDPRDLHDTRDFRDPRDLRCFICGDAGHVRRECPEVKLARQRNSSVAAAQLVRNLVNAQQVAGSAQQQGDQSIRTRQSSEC
Experiment: TUTase assay (Zcchc11 assay, Lin28a-dependent polyuridylation of pre-let-7)
Assay type: biochemical
Conditions: read-out: Potency Lin28a-dep Z11 IC50
Summary of the method: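 Polyuridylation measured as fluorescein loss when a rhodamine-labelled A20 probe anneals to U-tails added to fluorescein pre-let-7 (2 nM). Reaction: truncated Zcchc11 0.2 nM, E. coli-made LIN28A 10 nM, UTP 5 uM, HEPES pH 7.3, room temperature. Initial rates fitted to four-parameter IC50.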

[1] = Lin28a-dependent Zcchc11 (Z11) TUTase assay
[2] = Lin28a-dependent Zcchc11 (Z11) TUTase activity

Row | IC50 [1] | IC50 [2] | SMILES
1 | ≤ 1 µM | – | CN(C)c1ccc(Cl)c(OC[C@H]2CCCN2c2cc3c(cc2Cl)c(=O)c(C(=O)O)cn3-c2ccnc(N)c2)n1 [Example 655, (R)-1-(2-aminopyridin-4-yl)-6-chloro-7-(2-(((3-chloro-6-(dimethylamino)pyridin-2-yl)oxy)methyl)pyrrolidin-1-yl)-4-oxo-1,4-dihydroquinoline-3-carboxylic acid]
2 | 1 to 10 µM | – | Cc1cccnc1OC[C@H]1CCCN1c1cc2c(cc1Cl)c(=O)c(C(=O)O)cn2C1(C)COC1 [Example 456, (R)-6-chloro-1-(3-methyloxetan-3-yl)-7-(2-(((3-methylpyridin-2-yl)oxy)methyl)pyrrolidin-1-yl)-4-oxo-1,4-dihydroquinoline-3-carboxylic acid]
3 | 1 to 10 µM | – | O=C(O)c1cn(-c2cccc(F)c2F)c2cc(N3CCC[C@@H]3COc3ccccn3)c(F)cc2c1=O [Example 376, (R)-1-(2,3-difluorophenyl)-6-fluoro-4-oxo-7-(2-((pyridin-2-yloxy)methyl)pyrrolidin-1-yl)-1,4-dihydroquinoline-3-carboxylic acid]
4 | ≤ 1 µM | – | CN(CCN1CCC1)c1ccc(-n2cc(C(=O)O)c(=O)c3cc(Cl)c(N4CCC[C@@H]4COc4ncccc4Cl)cc32)cn1 [Example 601, (R)-1-(6-((2-(azetidin-1-yl)ethyl)(methyl)amino)pyridin-3-yl)-6-chloro-7-(2-(((3-chloropyridin-2-yl)oxy)methyl)pyrrolidin-1-yl)-4-oxo-1,4-dihydroquinoline-3-carboxylic acid]
5 | ≤ 1 µM | – | COc1ccc(C2C[C@H](COc3ncccc3Cl)N(c3cc4c(cc3Cl)c(=O)c(C(=O)O)cn4-c3ccc(N4CC(N(C)C)C4)nc3)C2)cn1 (stereo partly drawn) [Example 603, 6-chloro-7-((2R)-2-(((3-chloropyridin-2-yl)oxy)methyl)-4-(6-methoxypyridin-3-yl)pyrrolidin-1-yl)-1-(6-(3-(dimethylamino)azetidin-1-yl)pyridin-3-yl)-4-oxo-1,4-dihydroquinoline-3-carboxylic acid]
6 | ≤ 1 µM | – | Cc1cc2c(=O)c(C(=O)O)cn(-c3cnccn3)c2cc1N1CCC[C@@H]1COc1ncccc1Cl [Example 487, (R)-7-(2-(((3-chloropyridin-2-yl)oxy)methyl)pyrrolidin-1-yl)-6-methyl-4-oxo-1-(pyrazin-2-yl)-1,4-dihydroquinoline-3-carboxylic acid]
7 | ≤ 1 µM | – | Cn1ccnc1OC[C@H]1CCCN1c1cc2c(cc1Cl)c(=O)c(C(=O)O)cn2-c1ccc(N2CCC2)nc1 [Example 501, (R)-1-(6-(azetidin-1-yl)pyridin-3-yl)-6-chloro-7-(2-(((1-methyl-1H-imidazol-2-yl)oxy)methyl)pyrrolidin-1-yl)-4-oxo-1,4-dihydroquinoline-3-carboxylic acid]
8 | ≤ 1 µM | – | O=C(O)c1cn(-c2ccc(OCCO)cc2)c2cc(N3CCC[C@@H]3COc3ccccn3)c(F)cc2c1=O [Example 405, (R)-6-fluoro-1-(4-(2-hydroxyethoxy)phenyl)-4-oxo-7-(2-((pyridin-2-yloxy)methyl)pyrrolidin-1-yl)-1,4-dihydroquinoline-3-carboxylic acid]
9 | 1 to 10 µM | – | Nc1cc(Cn2cc(C(=O)O)c(=O)c3cc(Cl)c(N4CCC[C@@H]4COc4ncccc4Cl)cc32)ccn1 [Example 589, (R)-1-((2-aminopyridin-4-yl)methyl)-6-chloro-7-(2-(((3-chloropyridin-2-yl)oxy)methyl)pyrrolidin-1-yl)-4-oxo-1,4-dihydroquinoline-3-carboxylic acid]
10 | ≤ 1 µM | – | O=C(O)c1cn(-c2ccnnc2)c2cc(N3CCC[C@@H]3COc3ncccc3Cl)c(Cl)cc2c1=O [Example 504, 6-chloro-7-[(2R)-2-{[(3-chloropyridin-2-yl)oxy]methyl}pyrrolidin-1-yl]-4-oxo-1-(pyridazin-4-yl)-1,4-dihydroquinoline-3-carboxylic acid]
11 | ≤ 1 µM | – | CN(C)[C@H]1CCN(c2ccc(-n3cc(C(=O)O)c(=O)c4cc(C#N)c(N5CCC[C@@H]5COc5ncccc5Cl)cc43)cn2)C1 [Example 562, 7-((R)-2-(((3-chloropyridin-2-yl)oxy)methyl)pyrrolidin-1-yl)-6-cyano-1-(6-((S)-3-(dimethylamino)pyrrolidin-1-yl)pyridin-3-yl)-4-oxo-1,4-dihydroquinoline-3-carboxylic acid]

The next lines start with the compound.

Row | SMILES | IC50 [1] | IC50 [2]
12 | O=C(O)c1cn(-c2ccc(F)cn2)c2cc(N3CCC[C@@H]3COc3ccccn3)c(F)cc2c1=O [Compound 150, (R)-6-fluoro-1-(5-fluoropyridin-2-yl)-4-oxo-7-(2-((pyridin-2-yloxy)methyl)pyrrolidin-1-yl)-1,4-dihydro-quinoline-3-carboxylic acid] | – | 1 to 10 µM
13 | CN(C(=O)[C@H]1CCCN1c1cc2c(cc1Cl)c(=O)c(C(=O)O)cn2-c1cnccn1)c1ccccn1 (racemic) [Compound 178, rac-(R)-6-chloro-7-(2-(methyl (pyridin-2-yl)carbamoyl)pyrrolidin-1-yl)-4-oxo-1-(pyrazin-2-yl)-1,4-dihydro-quinoline-3-carboxylic acid] | – | > 50 µM
14 | Cn1cc(-n2cc(C(=O)O)c(=O)c3cc(F)c(N4CCC[C@@H]4COc4ncccc4F)cc32)cn1 (racemic) [Compound 290, rac-(R)-6-fluoro-7-(2-(((3-fluoropyridin-2-yl)oxy)methyl)pyrrolidin-1-yl)-1-(1-methyl-1H-pyrazol-4-yl)-4-oxo-1,4-dihydro-quinoline-3-carboxylic acid] | – | ≤ 1 µM
15 | Cc1cccnc1OC[C@H]1CCCN1c1cc2c(cc1F)c(=O)c(C(=O)O)cn2-c1ccc(O)cc1 [Compound 119, (R)-6-fluoro-1-(4-hydroxy-phenyl)-7-(2-(((3-methylpyridin-2-yl)oxy)methyl)pyrrolidin-1-yl)-4-oxo-1,4-dihydro-quinoline-3-carboxylic acid] | – | ≤ 1 µM
16 | O=C(O)c1cn2c3cc(c(Cl)cc3c1=O)N1CCC[C@@H]1COc1nc(ccc1Cl)OCCCNc1ccc-2cn1 [Compound 300, (R)-26,63-dichloro-24-oxo-21,24-dihydro-5,7-dioxa-11-aza-2(1,7)-quinolina-1(5,2),6(2, 6)-dipyridina-3(1,2)-pyrrolidina cyclo-undecaphane-23-carboxylic acid] | – | ≤ 1 µM
17 | CC1(n2cc(C(=O)O)c(=O)c3cc(Cl)c(N4CCC[C@@H]4COc4ncccc4Cl)cc32)CC1 [Compound 129, (R)-6-chloro-7-(2-(((3-chloropyridin-2-yl)oxy)methyl)pyrrolidin-1-yl)-1-(1-methylcyclo-propyl)-4-oxo-1,4-dihydro-quinoline-3-carboxylic acid] | – | ≤ 1 µM
18 | CN(C)C1CN(c2cc(Cl)c(-n3cc(C(=O)O)c(=O)c4cc(Cl)c(N5CCC[C@@H]5COc5ncccc5Cl)cc43)cn2)C1 [Compound 253, 6-chloro-1-[4-chloro-6-[3-(dimethyl-amino)azetidin-1-yl]pyridin-3-yl]-7-[(2R)-2-[[(3-chloropyridin-2-yl)oxy]methyl]pyrrolidin-1-yl]-4-oxoquinoline-3-carboxylic acid] | – | ≤ 1 µM
19 | COc1ccc(Cl)c(OCC2N(c3cc4c(cc3Cl)c(=O)c(C(=O)O)cn4-c3ccc(N4CC(N(C)C)C4)nc3)CCC2(C)C)n1 (stereo not drawn) [Compound 257, 6-chloro-7-(2-{[(3-chloro-6-methoxy-pyridin-2-yl)oxy]methyl}-3,3-dimethyl-pyrrolidin-1-yl)-1-{6-[3-(dimethyl-amino)azetidin-1 yl]pyridin-3-yl}-4-oxoquinoline-3-carboxylic acid] | – | ≤ 1 µM
20 | CN(C)C1CN(c2ccc(-n3cc(C(=O)O)c(=O)c4cc(Cl)c(N5CCCC5)cc43)cn2)C1 [Compound 295, C6-chloro-1-(6-(3-(dimethyl-amino)azetidin-1-yl)pyridin-3-yl)-4-oxo-7-(pyrrolidin-1-yl)-1,4-dihydro-quinoline-3-carboxylic acid] | – | 1 to 10 µM
21 | O=C(O)c1cn(-c2ccc(CO)cc2)c2cc(N3CCC[C@@H]3COc3ccccn3)c(F)cc2c1=O [Compound 162, (R)-6-fluoro-1-(4-(hydroxy-methyl)phenyl)-4-oxo-7-(2-((pyridin-2-yloxy)methyl)pyrrolidin-1-yl)-1,4-dihydro-quinoline-3-carboxylic acid] | – | ≤ 1 µM
